Test results taken from patent US10335417B2, “Thiazideamide derivative and use thereof” (Institute of Pharmacology and Toxicology Academy of …, priority 2015, dated 2019).

Columns and labels:
[1] = test system: chick embryo dorsal root ganglion; experiment: in vitro serum-free culture model of chick embryonic dorsal root ganglion: neurite growth score with NGF; type: cell-based; conditions: for Average score (growth of neurites of chick embryo dorsal root ganglion): 48 h, score 0-3, average of five ganglions, control 0.33
Protocol: The neurotrophic activity of the compounds according to the invention can be embodied in multiple in vitro biological models, such as in vitro serum-free culture model of chick embryonic dorsal root ganglion.
Experimental method: in a sterile environment, chick embryo, which had been incubated for 8 d, had the spinal and bilateral ganglion exposed under anatomical lens. Dorsal root ganglions were picked one by one using sharp forceps, and seeded in culture bottles spread with rat tail collagen, at a density of 5-6 ganglions per bottle, and two bottles for each dose. After attachment culture in a 37° C., 5% CO2 incubator for 1 h, serum-free medium DMEM containing nerve growth factor (NGF) (0.15 ng/mL), and the compound according to the invention were added. In the control group, only the medium and the same dose of NGF were added. After culture in the incubator for 48 h, the growth of neurite around dorsal root ganglion was observed under inverted phase contrast microscope, which was scored depending on the length and density of neurite.
Evaluation criteria: 0: no neurite; 1: rare long neurite; 2: relatively long or dense neurite; 3: long and dense neurite.

[2] = test system: BCAO-LBP mice (incomplete global cerebral ischemia); experiment: mouse BCAO-LBP model of incomplete global cerebral ischemia: cerebral MDA content and neurological function score; type: in vivo, Kunmin mice; conditions: for Neurologic deficit score / MDA content: 30 mg/kg i.g. once/d for 3 d, x ± SEM; for Neurologic deficit score: behaviour within 6 h after ligation, model group 3.92, sham 0.00; for neurologic deficit score decreased compared to the group administered with Compound 6: 30 mg/kg i.g., BCAO-LBP mice; for MDA content: whole cerebrum, model group 40.94, sham 33.15
Source text: In the Example, Kunmin mice were used as experimental subjects, intragastric (i.g.) administration was used, mouse BCAO-LBP (bilateral carotid artery occlusion with low blood pressure) model was used, and by determining neurological function score and the cerebral malondialdehyde (MDA) content in mice, the compounds were investigated for their protective effects on incomplete global cerebral ischemia in mice when administered prophylactically.
2.1.2 Preparation of a drug for intragastric administration: the compound was prepared to a 1.5 mg/ml solution using 0.7% CMC-Na solution.
28 mice, which had adapted to the laboratory environment for 1 week, were evenly grouped depending on body weight. The mice were intragastrically administered with 0.7% CMC-Na or one of the compounds, once/d, for 3 d. The groups were as followed:
Administration group: 12 mice, intragastrically administered at a dose of 0.2 ml/10 g, i.e., the dose of the compound was 30 mg/kg.
2.3.1 Mouse bilateral carotid artery ligation: 1 h after the last administration, the mice were subjected to orbital bloodletting to reduce blood pressure (which was about 30% of the total blood volume of the mice), and then fixed in supine position on the operating table, and cut in the middle of neck. Carotid artery was subjected to blunt dissection, and 2 lines were used in ligation for each side. The time counting started after the ligation with the third line, the carotid artery was cut off between the two lines, and the incision was sewn up. In the Sham-operated group, the carotid artery was only separated without ligation. After the operation, the mice were unfixed quickly, and the mice were observed and recorded for the behaviors within 6 h (scoring depending on the following table using blind method) and the death time. The brains were taken quickly after the mice died, the cerebellums were removed, and the MDA content in the whole cerebrum was determined by thiobarbituric acid (TBA).
The cerebra of mice were taken and weighed, and were prepared into 15% brain homogenate using N.S. 1.2 ml brain homogenate was placed in a 37° C. water bath for 1 h (shaking once every 10 min) and then taken out. 20% trichloroacetic acid 0.6 ml was added, and the mixture was mixed well, and was on standing for 10 min. After centrifugation at 2000 rpm for 10 min, to 1.2 ml supernatant, 0.67% TBA 0.6 ml was added. The mixture was placed in a boiling water bath for 10 min, and was taken out for cooling, and the OD value at a wavelength of 532 nm was determined.
The experimental data was expressed as x±SEM; SPSS 13.0 statistic software was used. Homogeneity or heterogeneity of variance was determined by one-factor analysis of variance. In the case of homogeneity of variance, LSD test was used; in the case of heterogeneity of variance, Dunnett's T3 test was used. Significant difference among different groups was compared, and P<0.05 indicated statistical significance.

[3] = in vitro; conditions: dog, MDCK-MDR1
Source text: (§1) MDCK-MDR1 cells were monolayer cells which highly express P-gp transporter after transfection of MDCK (Madin-Darby canine kidney epithelial cell) with MDR1 gene. Due to its density and high expression of efflux protein, the monolayer has similarity compared to blood-brain barrier (BBB) structure and now can be used as one of models for evaluating the ability of passing through BBB. In the invention, MDCK-MDR1 cells were used to study the membrane permeability of the compounds according to the invention, and to primarily evaluate its ability of passing through BBB.
(§2) The frozen MDCK-MDR1 cells were quickly thawed in a 37° C. water bath. To the resuscitated cells, DMEM medium containing 10% FBS was added, and the cells were cultured in an incubator at 37° C., 5% CO2, and a relative humidity of 90%. The medium was changed every other day. After fusion of the cells growing for 1-2 days, the cells were digested with 0.25% trypsin-EDTA (0.2%) mixed digestion solution at 37° C., and were sub-cultured at a certain ratio. The cells for use in experiment were those passaged for 40-60 generations.
(§3) When the cell fusion degree reached 80%, the cells were digested and then suspended in complete medium, and seeded to Millicell plate at 1×10^6 cells·mL^−1. The medium was changed every other day, and 1 week later, the medium was changed every day. After culturing for 5 days, the resistance value reached a constant value (>200 Ω·cm^2), and the cells could be used in the transport experiment.
(§4) After washing with 37° C. HBSS twice, the cells were incubated in a 37° C. culture incubator, wherein Rho-123 was added to the upper wells, and HBSS was added to the bottom wells. The incubation was carried out in a constant temperature shaker, and the solutions from the bottom wells were collected at each time point (0 min, 30 min, 90 min, 120 min), and stored at −20° C. for further use. The amount of Rho-123 permeated to the bottom well was determined by fluorospectrophotometer, wherein the emission wavelength was […], and the excitation wavelength was 530 nm.
(§5) The permeability from cavity-surface to basal surface: drug-containing HBSS 0.35 mL was add to Apical (AP), and blank HBSS 1.2 mL was added to Basolateral (BL). The Millicell was placed at 37° C. in a shaker under shaking at 50 r·min^−1, 50 μL sample was collected from the bottom well at 0, 30, 90, 120 min, respectively, and the same volume of blank HBSS was supplemented. 3 wells were set for each concentration, and to the sample, an internal standard solution (50 μL) and ethyl acetate (350 μL) were added precisely. The mixture was mixed homogeneously under shaking, and centrifuged at 12000 rmp for 5 min. The supernatant (300 μL) was volatilized to dryness, and re-dissolved in 50 μL acetonitrile. The 10 μL resultant solution was used for determination.
(§6) The permeability from basal surface to cavity surface: the drug is added to Basolateral (BL), and blank HBSS was added to Apical (AP), and the other steps were the same as those of the experiment for determining the permeability from cavity-surface to basal surface.
(§7) The apparent permeability coefficient (Papp) of a drug reflects the ability of the drug to pass through cell monolayer and the drug absorption rate and extent. It can be calculated in accordance with the following equation: […]
(§8) wherein, Q represents the amount of drug permeated in the t period, A represents cell surface area, and represents the area (0.6 cm^2) of supporting film in this model, and C0 represents an initial concentration. The unit of Papp is expressed as cm·s^−1.
(§9) By measurement using LC/MS, the concentration of each sample was quantitated using its standard curve (50 nM-10000 nM).

[4] = test system: MDCK-MDR1 cells; experiment: in vitro; conditions: dog, MDCK-MDR1, 120 min
Source text: as §1, §2, §3, §4, §5, §6, §7, §8, §9

[5] = compound 100 pM + NGF 0.15 ng/mL

Papp at 120 min [3] [×10⁻⁶ cm/s]	Papp value increased compared to Compound 6 [4]	Compound	Average score (growth of neurites of chick embryo dorsal root ganglion) ([1]; compound 1 pM + NGF 0.15 ng/mL)	Average score (growth of neurites of chick embryo dorsal root ganglion) [1, 5]	neurotrophic activity increased compared to Compound 6 ([1]; dose 1 pM) [%]	neurotrophic activity increased compared to Compound 6 ([1]; dose 100 pM) [%]	Neurologic deficit score [2]	neurologic deficit score decreased compared to the group administered with Compound 6 [2] [%]	MDA content [2] [nmol/g]
45.8	above 7%	CCc1ccc(S(=O)(=O)N2CCSC[C@H]2C(=O)NC(CC(C)C)C(=O)OC(C)C)cc1 (stereo in doubt) [Compound 28, (3R)-4-[(4-ethylbenzenesulfonyl)]tetrahydro-1,4-thiazin-3-carbonyl-L-leucine isopropyl ester]	2.00	2.96	19	16	1.87 ± 0.31	~10	30.90 ± 1.65
49.8	above 7%	CCOC(=O)[C@@H](NC(=O)[C@@H]1CSCCN1S(=O)(=O)c1ccc(C)cc1)C(C)CC (stereo partly drawn) [Compound 7, (2S,3R)-ethyl-3-methyl-2((R)-(4-methylphenyl)sulfonyltetrahydro-1,4-thiazin-3-aminoformyl)valerate]	1.46	1.95					
44.2	above 7%	Cc1ccc(S(=O)(=O)N2CCSC[C@H]2C(=O)N[C@@H](Cc2ccccc2)C(=O)OC(C)C)cc1 [Compound 23, (S)-isopropyl-3-phenyl-2((R)-(4-methylphenyl)sulfonyltetrahydro-1,4-thiazin-3-aminoformyl)propionate]	2.12	3.21			1.81 ± 0.26	~13	31.87 ± 0.95
